Where only a bound is given, the exact number is not on record here.

One assay deals with T1, FSHR (Homo sapiens, UniProt P23945).
T1 construct: expressed in transfected cells; host or cells: CHO (Cho-FSHR-LUC-1-1-43)
T1 sequence (P23945 18-695): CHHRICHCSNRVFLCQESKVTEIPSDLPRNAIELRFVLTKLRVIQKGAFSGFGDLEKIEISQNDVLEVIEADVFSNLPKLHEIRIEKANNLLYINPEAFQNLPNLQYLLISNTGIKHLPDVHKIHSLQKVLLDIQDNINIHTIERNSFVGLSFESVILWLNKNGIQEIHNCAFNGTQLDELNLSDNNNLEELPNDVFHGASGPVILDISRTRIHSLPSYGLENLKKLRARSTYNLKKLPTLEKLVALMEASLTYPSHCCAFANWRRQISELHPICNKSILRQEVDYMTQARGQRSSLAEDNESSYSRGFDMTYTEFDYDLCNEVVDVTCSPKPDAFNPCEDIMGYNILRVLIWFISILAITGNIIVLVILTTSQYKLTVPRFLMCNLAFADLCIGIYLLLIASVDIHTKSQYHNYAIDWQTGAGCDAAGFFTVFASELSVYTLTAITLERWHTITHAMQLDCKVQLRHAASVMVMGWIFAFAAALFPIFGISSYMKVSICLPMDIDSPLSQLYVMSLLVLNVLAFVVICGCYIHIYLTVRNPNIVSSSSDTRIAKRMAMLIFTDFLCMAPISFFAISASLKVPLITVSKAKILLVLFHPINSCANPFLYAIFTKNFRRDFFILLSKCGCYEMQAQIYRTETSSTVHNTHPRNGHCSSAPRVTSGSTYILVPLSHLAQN
T1 sequence (P01215 25-116 partner): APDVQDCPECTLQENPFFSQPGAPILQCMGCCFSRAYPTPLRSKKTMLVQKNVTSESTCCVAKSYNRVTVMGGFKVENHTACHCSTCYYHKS
T1 sequence (P01225 19-129 partner): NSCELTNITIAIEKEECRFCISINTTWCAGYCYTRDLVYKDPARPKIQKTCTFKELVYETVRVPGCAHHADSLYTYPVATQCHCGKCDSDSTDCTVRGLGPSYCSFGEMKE
Nature of the assay: EC50 of cyclic AMP production in CHO FSHR cells + EC20 FSH (Assay A). The format is cell-based. The note with it: 1 h; 5 μM; effect relative to maximum response of the FSH standard; Table 1. Here is the method:
Example 10: EC50 of Cyclic AMP Production in CHO FSHR Cells+EC20 FSH (Assay A)
2500 Cho-FSHR-LUC-1-1-43 cells were plated per well in 5 μl of phenol red free DMEM/F12+1% FBS. Cells were plated in 384 well, solid white low volume plates (Greiner 784075) by Multidrop. Cells were assayed by adding 100 μl of 2×EC20 FSH/IBMX in DMEM/F12+0.1% BSA) by Multidrop to 2 μl of test compound stamped in 384 well plates (compounds are diluted 1:50). The final FSH concentration was […], and the final IBMX concentration was 200 μM. The compound plate map was as follows: Column 1: 2 μl of DMSO; Column 2: 2 μl of DMSO; Columns 3-12 and 13-24: 2 μl of test compound, diluted 1:4 in 100% DMSO, or 2 μl of FSH, diluted 1:4 in DMEM/F12+0.1% BSA. The starting concentration for FSH was 50 nM (final concentration was 0.5 nM). […] 5 μl of compound+EC20 FSH mixture were transferred to cell plates (1:2 dilution into 5 μl of cell media) The plates were incubated at 37° C. for 1 h. 10 μl of mixed HTRF (CisBio #62AM4PEC) reagents were added per well and incubated at room temperature for 1 h. The plates were read on Envision using the cAMP HTRF—low volume 384 well protocol. The readout was the calculated fluorescence ratio (665 nm/620 nm). Values given in percent (%) indicate the percental effect (response) at a certain concentration of agonist relative to the maximum response of the FSH standard.
In the case of `Cc1ccccc1N1CCN(c2ccc(C(=O)NCCCN3CCCC3=O)cc2NC(=O)c2conc2C)CC1` [Compound 80], the activation at 5 µM stood at 22%.

Regarding `CCc1onc(C)c1C(=O)Nc1cc(C(=O)NCCCN2CCCC2=O)ccc1N1CCN(c2ccccc2C)CC1` [Compound 81], the activation at 5 µM stood at 11%.

As for `Cc1ccccc1N1CCN(c2ccc(C(=O)NCCCN3CCCC3=O)cc2NC(=O)C2CCN(C)CC2)CC1` [Compound 83], the activation at 5 µM is 8%.

Regarding `Cc1ccccc1N1CCN(c2ccc(C(=O)NCCCN3CCCC3=O)cc2NC(=O)c2cccc(N(C)C)c2)CC1` [Compound 86], the activation at 5 µM turned out to be 47%.

`Cc1ccccc1N1CCN(c2ccc(C(=O)NCCCN3CCCC3=O)cc2NC(=O)c2cccc3ccccc23)CC1` [Compound 88]: the activation at 5 µM came out at 34%.

As to `Cc1ccccc1N1CCN(c2ccc(C(=O)NCc3ccc(C(F)(F)F)cc3)cc2NC(=O)c2ccco2)CC1` [Compound 94, Furan-2-carboxylic acid [2-(4-o-tolyl-piperazin-1-yl)-5-(4-trifluoromethyl-benzylcarbamoyl)-phenyl]-amide], the activation at 5 µM turned out to be 48%.

For `Cc1ccccc1N1CCN(c2ccc(C(=O)NCCCN3CCCC3=O)cc2NC(=O)c2cncs2)CC1` [Compound 99], the activation at 5 µM came to 35%.

Consider `CCNc1nc(C)c(C(=O)Nc2cc(C(=O)NCCCN3CCCC3=O)ccc2N2CCN(c3ccccc3C)CC2)s1` [Compound 100], for which the activation at 5 µM was found to be 12%.

As for `Cc1ccccc1N1CCN(c2ccc(C(=O)NCCCN3CCCC3=O)cc2NC(=O)c2c(C)noc2C)CC1` [Compound 106], the activation at 5 µM worked out at 33%.

Take `Cc1ccccc1N1CCN(c2ccc(C(=O)NCCCN3CCCC3=O)cc2NC(=O)c2cnoc2C)CC1` [Compound 107]: the activation at 5 µM turned out to be 15%.

With `Cc1ccccc1N1CCN(c2ccc(C(=O)NCCCN3CCCC3=O)cc2NC(=O)c2cnoc2C2CC2)CC1` [Compound 109], the activation at 5 µM was found to be 10%.

Take `Cc1ccccc1N1CCN(c2ccc(C(=O)NCCCN3CCCC3=O)cc2NC(=O)c2cccc3c2CCCC3)CC1` [Compound 112]: the activation at 5 µM was determined as 21%.

On to `Cc1ccccc1N1CCN(c2ccc(C(=O)NCCCN3CCCC3=O)cc2NC(=O)c2ccc3ccn(C)c3c2)CC1` [Compound 114], for which the activation at 5 µM was determined as 40%.

With `Cc1ccccc1N1CCN(c2ccc(C(=O)NCCCN3CCCC3=O)cc2NC(=O)c2cccc3nccnc23)CC1` [Compound 115], the activation at 5 µM worked out at 39%.

On to `COc1ccc(CNC(=O)c2ccc(N3CCN(c4ccccc4C)CC3)c(NC(=O)c3ccco3)c2)cc1` [Compound 122], for which the activation at 5 µM is 24%.

With `COc1ccccc1CNC(=O)c1ccc(N2CCN(c3ccccc3C)CC2)c(NC(=O)c2ccco2)c1` [Compound 124, Furan-2-carboxylic acid [5-(2-methoxy-benzylcarbamoyl)-2-(4-o-tolyl-piperazin-1-yl)-phenyl]-amide], the activation at 5 µM worked out at 82%.

Consider `O=C(NCCCN1CCCC1=O)c1ccc(N2CCN(c3ccccn3)CC2)c(NC(=O)c2ccco2)c1` [Compound 126], for which the activation at 5 µM came to 33%.

On to `COc1ccc(C(=O)Nc2cc(C(=O)NCCCN3CCCC3=O)ccc2N2CCN(c3ccccc3C)CC2)cc1OC` [Compound 127], for which the activation at 5 µM was 33%.

Still in this assay, the particulars now being: CHO FSHR cells + EC20 FSH; Table 1; read-out: Assay A EC50 of cyclic AMP production.
Usually EC50 stands for the concentration at which the effect is half-maximal. Turning to `Cc1nc(C(=O)Nc2cc(C(=O)NCCCN3CCCC3=O)ccc2N2CCN(c3ccccc3C)CC2)c(C(F)(F)F)o1` [Compound 76], the EC50 was in the range of 1000 to 10000 nM.

As to `CCc1ocnc1C(=O)Nc1cc(C(=O)NCCCN2CCCC2=O)ccc1N1CCN(c2ccccc2C)CC1` [Compound 77], the EC50 lay within 1000 to 10000 nM.

Regarding `Cc1ccccc1N1CCN(c2ccc(C(=O)NCCCN3CCCC3=O)cc2NC(=O)c2ncoc2C)CC1` [Compound 78], the EC50 was 100 to 1000 nM.

For `Cc1ccccc1N1CCN(c2ccc(C(=O)NCCCN3CCCC3=O)cc2NC(=O)C2CCCCC2)CC1` [Compound 82], the EC50 was 1000 to 10000 nM.

Consider `Cc1ccccc1N1CCN(c2ccc(C(=O)NCCCN3CCCC3=O)cc2NC(=O)c2ccccc2C(F)(F)F)CC1` [Compound 87], for which the EC50 was in the range of 1000 to 10000 nM.

For `Cc1ccccc1N1CCN(c2ccc(C(=O)NCCCc3ccccc3)cc2NC(=O)c2ccco2)CC1` [Compound 89], the EC50 lay in the range of 100 to 1000 nM.

`Cc1ccccc1N1CCN(c2ccc(C(=O)NCCCn3cccn3)cc2NC(=O)c2ccco2)CC1` [Compound 90]: the EC50 lay in the range of 100 to 1000 nM.

`Cc1ccccc1N1CCN(c2ccc(C(=O)N[C@@H](C)C(=O)NC3CCCC3)cc2NC(=O)c2ccco2)CC1` [Compound 91]: the concentration giving a half-maximal response (EC50) lay within 1000 to 10000 nM.

Take `Cc1ccccc1N1CCN(c2ccc(C(=O)NCCCN3CCCC3=O)cc2NC(=O)C2CCCO2)CC1` (stereo not shown) [Compound 92]: the EC50 is 1000 to 10000 nM.

`COc1cccc(CNC(=O)c2ccc(N3CCN(c4ccccc4C)CC3)c(NC(=O)c3ccco3)c2)c1` [Compound 93, Furan-2-carboxylic acid [5-(3-methoxy-benzylcarbamoyl)-2-(4-o-tolyl-piperazin-1-yl)-phenyl]-amide]: the EC50 fell in the range of 100 to 1000 nM.

As for `COc1cc(CNC(=O)c2ccc(N3CCN(c4ccccc4C)CC3)c(NC(=O)c3ccco3)c2)cc(OC)c1` [Compound 95, Furan-2-carboxylic acid [5-(3,5-dimethoxy-benzylcarbamoyl)-2-(4-o-tolyl-piperazin-1-yl)-phenyl]-amide], the EC50 is 100 to 1000 nM.

For `Cc1ccccc1N1CCN(c2ccc(C(=O)NCc3cccc4ccccc34)cc2NC(=O)c2ccco2)CC1` [Compound 96, Furan-2-carboxylic acid [5-[(naphthalen-1-ylmethyl)-carbamoyl]-2-(4-o-tolyl-piperazin-1-yl)-phenyl]-amide], the half-maximal effective concentration (EC50) was greater than 10000 nM.

With `Cc1ccccc1N1CCN(c2ccc(C(=O)NCCCN3CCCC3=O)cc2NC(=O)c2ccno2)CC1` [Compound 98], the EC50 lay within 1000 to 10000 nM.

In the case of `Cc1ccccc1N1CCN(c2ccc(C(=O)NCCCN3CCCC3=O)cc2NC(=O)c2csc(Br)n2)CC1` [Compound 101], the EC50 was in the range of 1000 to 10000 nM.

Take `Cc1nc(C(=O)Nc2cc(C(=O)NCCCN3CCCC3=O)ccc2N2CCN(c3ccccc3C)CC2)c(C)o1` [Compound 102]: the half-maximal effective concentration (EC50) is 1000 to 10000 nM.

Turning to `Cc1ccccc1N1CCN(c2ccc(C(=O)NCCCN3CCCC3=O)cc2NC(=O)c2cocn2)CC1` [Compound 103], the concentration giving a half-maximal response (EC50) is 1000 to 10000 nM.

`Cc1ccccc1N1CCN(c2ccc(C(=O)NCCCN3CCCC3=O)cc2NC(=O)c2csnn2)CC1` [Compound 110]: the EC50 was in the range of 1000 to 10000 nM.

With `Cc1ccccc1C(=O)Nc1cc(C(=O)NCCCN2CCCC2=O)ccc1N1CCN(c2ccccc2C)CC1` [Compound 111], the 50% effective concentration (EC50) fell in the range of 1000 to 10000 nM.

As to `Cc1ccccc1N1CCN(c2ccc(C(=O)NCCCn3ccnc3)cc2NC(=O)c2ccco2)CC1` [Compound 116], the EC50 was 100 to 1000 nM.

`Cc1ccccc1N1CCN(c2ccc(C(=O)NCCCN3CCCC3)cc2NC(=O)c2ccco2)CC1` [Compound 117]: the EC50 is 1000 to 10000 nM.

Take `Cc1ccccc1N1CCN(c2ccc(C(=O)NCCCn3ccnc3C)cc2NC(=O)c2ccco2)CC1` [Compound 118]: the EC50 was in the range of 100 to 1000 nM.

Take `Cc1ccccc1N1CCN(c2ccc(C(=O)NCCS(=O)(=O)N3CCCC3)cc2NC(=O)c2ccco2)CC1` [Compound 119]: the EC50 fell in the range of 100 to 1000 nM.

`Cc1ccccc1N1CCN(c2ccc(C(=O)NCCC(=O)N3CCCC3)cc2NC(=O)c2ccco2)CC1` [Compound 120]: the EC50 lay within 100 to 1000 nM.

As for `Cc1ccccc1N1CCN(c2ccc(C(=O)NCCCN3CCCC3=O)cc2NC(=O)c2ccc(Cl)cn2)CC1` [Compound 129], the EC50 fell in the range of 100 to 1000 nM.

`Cc1ccc(C(=O)Nc2cc(C(=O)NCCCN3CCCC3=O)ccc2N2CCN(c3ccccc3F)CC2)o1` [Compound 130, 5-Methyl-furan-2-carboxylic acid {2-[4-(2-fluoro-phenyl)-piperazin-1-yl]-5-[3-(2-oxo-pyrrolidin-1-yl)-propylcarbamoyl]-phenyl}-amide]: the EC50 was in the range of 1000 to 10000 nM.

In the case of `Cc1ccccc1N1CCN(c2ccc(C(=O)NCc3ccc(Cl)cc3)cc2NC(=O)c2ccco2)CC1` [Compound 131, Furan-2-carboxylic acid [5-(4-chloro-benzylcarbamoyl)-2-(4-o-tolyl-piperazin-1-yl)-phenyl]-amide], the EC50 fell in the range of 100 to 1000 nM.

With `CNCCNC(=O)c1ccc(N2CCN(c3ccccc3C)CC2)c(NC(=O)c2ccco2)c1` [Compound 132, Furan-2-carboxylic acid [5-(2-methylamino-ethylcarbamoyl)-2-(4-o-tolyl-piperazin-1-yl)-phenyl]-amide], the EC50 lay in the range of 1000 to 10000 nM.

Take `CCC(C)(C)C(=O)N(C)CCNC(=O)c1ccc(N2CCN(c3ccccc3C)CC2)c(NC(=O)c2ccco2)c1` [Compound 133, Furan-2-carboxylic acid [5-{2-[(2,2-dimethyl-butyryl)-methyl-amino]-ethylcarbamoyl}-2-(4-o-tolyl-piperazin-1-yl)-phenyl]-amide]: the EC50 was in the range of 100 to 1000 nM.

The values above are taken from US9938262B2, “Benzamides” (Merck Patent GmbH, priority 2011, dated 2018).
